{
  "source": "paper PMC3805374",
  "about": "(Life sciences, 2013)",
  "key": {"FLAG-mDOPR [1]": {"molecular_target": "T1, FLAG-mDOPR (Mus musculus, UniProt P32300)", "T1 sequence (P32300 whole entry)": "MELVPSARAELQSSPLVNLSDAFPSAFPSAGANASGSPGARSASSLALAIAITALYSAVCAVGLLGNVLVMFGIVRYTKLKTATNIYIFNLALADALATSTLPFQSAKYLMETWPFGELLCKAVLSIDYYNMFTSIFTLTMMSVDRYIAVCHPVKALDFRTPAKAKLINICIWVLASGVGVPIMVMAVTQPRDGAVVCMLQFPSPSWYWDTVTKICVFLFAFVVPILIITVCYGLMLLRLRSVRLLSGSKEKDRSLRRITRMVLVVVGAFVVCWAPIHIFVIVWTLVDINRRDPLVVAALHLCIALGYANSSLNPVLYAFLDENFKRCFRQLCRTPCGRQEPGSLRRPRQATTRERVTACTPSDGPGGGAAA", "assay_type": "cell-based", "conditions": "10 μM pretreatment for 30 min or 24 h"}, "ERK1/2 phosphorylation": {"tested_on": "ERK1/2 phosphorylation", "test": "Immunoblot analysis of phosphorylated ERK1/2 in CHO-FLAG-DOPR/HA-D1R cells", "assay_type": "cell-based, Chinese hamster", "conditions": "10 μM for 30 min"}, "D1R": {"molecular_target": "D1R (Rattus norvegicus, UniProt P18901)", "sequence (P18901 whole entry)": "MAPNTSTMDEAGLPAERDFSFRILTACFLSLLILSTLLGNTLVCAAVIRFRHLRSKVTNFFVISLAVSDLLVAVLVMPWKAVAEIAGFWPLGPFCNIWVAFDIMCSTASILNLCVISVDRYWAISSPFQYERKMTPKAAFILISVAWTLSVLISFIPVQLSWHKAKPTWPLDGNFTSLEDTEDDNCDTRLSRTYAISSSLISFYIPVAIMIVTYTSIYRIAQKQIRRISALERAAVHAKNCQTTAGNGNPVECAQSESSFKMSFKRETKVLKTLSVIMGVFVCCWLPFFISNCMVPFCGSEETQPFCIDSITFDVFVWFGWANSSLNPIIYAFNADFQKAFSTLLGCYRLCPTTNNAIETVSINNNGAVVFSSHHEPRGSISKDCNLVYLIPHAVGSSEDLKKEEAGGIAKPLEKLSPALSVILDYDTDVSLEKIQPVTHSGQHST", "test": "cAMP level in NG108-15/HA-D1R and CHO-FLAG-DOPR/HA-D1R cells", "assay_type": "cell-based", "conditions": "NG108-15/HA-D1R cells and CHO-FLAG-DOPR/HA-D1R cells; data not shown"}, "endogenous DOPR": {"molecular_target": "endogenous DOPR (Mus musculus, UniProt P32300)", "sequence (P32300 whole entry)": "as the sequence (P32300 whole entry) above", "test": "DPDPE-stimulated [35S]GTPγS binding to membranes of NG 108-15-HA-D1R cells", "assay_type": "biochemical, mouse neuroblastoma × rat glioma hybrid", "conditions": "NG 108-15-HA-D1R cells pretreated with 10 μM for 30 min, n=3"}, "FLAG-mouse DOPR": {"molecular_target": "FLAG-mouse DOPR (Mus musculus, UniProt P32300)", "sequence (P32300 whole entry)": "as above", "assay_type": "biochemical", "conditions": "CHO-FLAG-DOPR/HA-D1R cells pretreated with 10 μM for 30 min, n=3"}, "FLAG-mDOPR [2]": {"molecular_target": "T1, FLAG-mDOPR", "test": "Phosphorylation of the DOPR", "assay_type": "cell-based", "conditions": "CHO-FLAG-DOPR/HA-D1R cells; 10 μM for 30 min"}},
  "data": [
    {"smiles": "Br.C=CCN1CCc2c(cc(O)c(O)c2Cl)C(c2ccccc2)C1", "note": "(racemic) [SKF-82958, (±)-chloro-APB HBr]", "values": [
      {"measurement": "Effect on total or cell surface DOPRs", "setting": "FLAG-mDOPR [1]", "value": "did not affect total or cell surface DOPRs"},
      {"measurement": "ERK1/2 phosphorylation compared with the control", "setting": "ERK1/2 phosphorylation", "value": "produced a marked increase in ERK1/2 phosphorylation"},
      {"measurement": "cAMP level", "setting": "D1R", "value": "dose-dependently increased cAMP level"},
      {"measurement": "Basal [35S]GTPγS binding after pretreatment", "setting": "endogenous DOPR", "value": "14.5 ± 1.9", "unit": "fmol/mg protein"},
      {"measurement": "Basal [35S]GTPγS binding after pretreatment", "setting": "FLAG-mouse DOPR", "value": "42.6 ± 7.0", "unit": "fmol/mg protein"},
      {"measurement": "Phosphorylation of the DOPR", "setting": "FLAG-mDOPR [2]", "value": "did not induce phosphorylation of the DOPR"}
    ]}
  ]
}
